Earlier results on two compounds are cited in US5434330A, “Process and apparatus for separation of constituents of gases using gas hydrates” (priority 1993, dated 1995).

Like-named read-outs stand apart in the source and are kept apart here.

The conditions of data set [1]: for calculation at 253K.
For data set [2] the following is noted: in ethyl ether, 20° C.
The conditions of data set [3]: 25° C.

As to `C` [methane], the “methane-methanol Henry's law constant” value in data set [1] (in methanol) is listed as 824 atm. For the same compound, in data set [1] (in water), the “methane-water Henry's law constant” value was 10,193 atm. Also, in data set [2], the Ostwald coefficient was 1028. Also, the “SOLUBILITY OF METHANE, HENRY'S CONSTANT H” value in data set [3] (in Acetone) is on record as 533 atm; in data set [3] (in Ethanol), 770 atm; in data set [3] (in Methanol), 1137 atm; in data set [3] (in Water), 39,052 atm.
As to `N#N` [nitrogen], the “nitrogen-methanol Henry's law constant” value in data set [1] (in methanol) was 3,632 atm. In addition, the “nitrogen-water Henry's law constant” value in data set [1] (in water) is given as 27,987 atm.
